The record followed here is doi:10.1101/2020.04.22.021360v1 (biorxiv, 2020).

Test [1] addresses T1, PDE2 (cGMP-dependent 3',5'-cyclic phosphodiesterase; PDE2A) (Homo sapiens, UniProt O00408). The test is described as follows: biochemical.
Test [2] addresses T1, PDE2 (cGMP-dependent 3',5'-cyclic phosphodiesterase; PDE2A). The experiment in a line: MicroScale Thermophoresis, 12-concentration dilution. It counts as binding.

T1 sequence (O00408 2-941): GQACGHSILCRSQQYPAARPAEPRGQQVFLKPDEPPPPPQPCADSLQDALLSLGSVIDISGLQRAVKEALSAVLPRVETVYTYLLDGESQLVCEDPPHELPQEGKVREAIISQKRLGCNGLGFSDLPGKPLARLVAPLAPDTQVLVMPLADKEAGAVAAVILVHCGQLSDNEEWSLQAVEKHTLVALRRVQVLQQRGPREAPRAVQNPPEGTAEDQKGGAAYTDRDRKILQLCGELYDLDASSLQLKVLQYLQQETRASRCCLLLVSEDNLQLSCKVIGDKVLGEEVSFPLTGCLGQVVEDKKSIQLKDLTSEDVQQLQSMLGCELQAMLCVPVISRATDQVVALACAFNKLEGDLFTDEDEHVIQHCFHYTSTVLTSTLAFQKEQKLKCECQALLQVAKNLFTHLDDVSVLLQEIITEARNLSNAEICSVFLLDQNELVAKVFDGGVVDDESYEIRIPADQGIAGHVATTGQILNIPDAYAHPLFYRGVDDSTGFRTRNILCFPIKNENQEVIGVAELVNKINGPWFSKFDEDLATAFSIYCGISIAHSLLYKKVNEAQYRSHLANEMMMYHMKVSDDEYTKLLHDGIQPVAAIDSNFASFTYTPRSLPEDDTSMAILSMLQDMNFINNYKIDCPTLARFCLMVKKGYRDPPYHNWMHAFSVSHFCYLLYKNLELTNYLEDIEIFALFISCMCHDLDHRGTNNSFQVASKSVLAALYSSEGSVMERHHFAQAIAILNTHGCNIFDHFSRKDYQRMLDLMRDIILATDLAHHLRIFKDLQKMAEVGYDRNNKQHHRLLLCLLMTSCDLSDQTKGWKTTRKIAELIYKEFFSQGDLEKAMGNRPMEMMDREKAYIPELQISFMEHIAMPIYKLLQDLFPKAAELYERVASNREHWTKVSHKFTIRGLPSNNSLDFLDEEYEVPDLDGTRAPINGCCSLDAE

Take `CCn1c(=O)c(=O)[nH]c2cc(C(=O)Nc3nc(-c4cccnc4)cs3)ccc21` [Z29458849]: the Kd was determined as 21.1 µM in test [1] (binder) and 24.9 µM in test [2] (dye-labelled PDE2, 1:1 fit).
Regarding `Cc1nccc(C(=O)Nc2[nH]ncc2-c2cccc(Cl)c2)n1` [Z973817294], the Kd in test [2] is over 100 µM.
In the case of `O=C(O)c1ccc(C=C2Cc3c(O)cccc3C2=O)cc1` [Z217160080], in test [2] (read-out: apparent KD, dye-labelled PDE2, weak binder, no KD fit), the Kd was over 100 µM.
In test [2], `CCSc1nc2ccccc2c2nc(C)nn12` [Z226974122] gave a Kd of over 100 µM.
Compound `O=C(Nc1ccc(Cl)cc1F)c1ccc(-n2cnc3ccccc32)cc1` [Z87546752] showed a Kd in test [2] of over 100 µM.
As to `CSc1nc2ccccc2c(=O)n1-c1ccc(F)cc1F` [Z19056583], the Kd was found to be 9.58 µM in test [1] and 10.1 µM in test [2].
`CSc1nc(Cl)c(C)c(NCC2CCOC2)n1` (stereo not shown) [Z3216015031]: the Kd was 12.8 µM in test [1] and 14.2 µM in test [2].
